Experimental findings from patent US9139811B2, “Composition for suspension culturing of stem cells” (SEOUL NATIONAL UNIVERSITY HOSPITAL, priority 2011, dated 2015) are described below.

For orientation: viability means a read-out of living cells in per cent, often relative to untreated cells.

SMILES strings stand for the structures.

In data set [1] the test system is Human mesenchymal stem cells (BM-MSC). Briefly: Suspension culture of human mesenchymal stem cells, trypan blue staining and cell counting. It counts as cell-based. To be noted: for cell aggregation / apoptosis of non-aggregated single cells: 24 hours of culture, FIG. 2; for apoptosis of non-aggregated single cells: trypan blue staining. The method, then:
Human mesenchymal stem cells (Lonza, Switzerland) were cultured in 10% FBS-containing α-MEM medium such that no contact inhibition occurred. […] Then, the cells were treated with 0.25% trypsin/EDTA and allowed to stand in a CO2 incubator at 37° C. for 30 seconds. The cells that dropped into the tube were collected, and the cells remaining in the dish were completely collected with 10% FBS-containing α-MEM, and the collected cells were centrifuged at 1500 rpm for 5 minutes. The supernatant medium was removed by suction, and the precipitated cells were suspended in 5 ml of EB medium (80% DMEM/F12 80%+20% serum replacement) and then centrifuged at 1500 rpm for 5 minutes. Then, the cells were suspended in 10 ml of medium (containing or not containing 20 μM Y27632) in a 100 Φ Petri dish at a density of 2.0×10^6 cells. After 24 hours, the aggregated cells were stained with trypan blue, and then counted with an automated cell counter (Invitrogen).

Data set [2] deals with HGF (hepatocyte growth factor). Description: Suspension culture of single cells using E-cadherin blocker: HGF expression. It counts as cell-based, human. To be noted: aggregation inhibited with E-cadherin blocking antibody, Y-27632 for 24 hours, FIG. 9. The text has this: (§1) In vivo conditions in which treatment of cells is required are mostly ischemic anoxic anaerobic conditions in which the cells are injured or broken, and one of major factors in the conditions is HGF (hepatocyte growth factor). Thus, in order to examine the expression level of the hepatocyte growth factor HGF, the supernatant was collected from the cell sample and analyzed by ELISA (enzyme-linked immunosorbent assay) using a HGF-specific antibody according to the manufacturer's protocol.
In order to use E-cadherin to induce single-cell culture during suspension culture, the cells were treated with an E-cadherin blocker to inhibit the induction of cell aggregation during suspension culture. Specifically, human mesenchymal stem cells were cultured in 10% FBS-containing α-MEM medium such that no contact inhibition occurred. When a confluence of about 80% was reached, the medium was removed by suction for cell counting, and the cells were washed with PBS (calcium-free and magnesium-free). Then, the cells were treated with 0.25% trypsin/EDTA and allowed to stand in a CO2 incubator at 37° C. for 30 seconds. The cells that dropped into the tube were collected, and the cells remaining in the dish were completely collected with 10% FBS-containing α-MEM, and the collected cells were centrifuged at 1500 rpm for 5 minutes. […]

The next data set concerns BCL-XL. Briefly: Western blotting of BCL-XL expression in suspension-cultured cells. It counts as cell-based, human. The settings on record: Y27632-treated vs control (naive) cells, FIG. 3. On the procedure:
(§2) In order to measure a change in the expression of an anti-apoptosis factor in a cell sample, the expression level of BCL-XL was measured at the protein level. In addition, the cells were collected after suspension culture for 6 hours, and the degree of phosphorylation of ERK which is involved in the activity of the cells was evaluated. Specifically, the cells were lysed with a reducing agent [Lysis PreMix (4° C. stock)+NaF ([…], ×100)+orthovanadate (200 mM, ×200)+proteinase inhibitor cocktail (1 tablet/10 ml)], and then electrophoresed on SDS-polyacrylamide gel. Then, the cells were transferred to a PVDF transfer membrane (Millipore), after which a change in the expression of the protein was examined by a primary antigen-antibody reaction using BCL-xl (Santa Cruz Biotechnology) and a secondary antigen-antibody reaction using anti-rabbit IgG and anti-mouse IgG.
In general terms: Immunoblotting shows a protein as a band on a membrane.

For data set [3], the system named is ERK (extracellular signal-regulated kinase). Description: Western blotting of ERK phosphorylation in suspension-cultured cells. It counts as cell-based, human. To be noted: suspension culture for 6 hours, Y27632-treated vs control (naive) cells, FIG. 4. The method, then:
as §2

Data set [4] concerns HGF (hepatocyte growth factor). Briefly: HGF ELISA of culture supernatant. Type of data set: cell-based, human. To be noted: vs untreated control cells and EDTA-treated control cells, FIG. 5.
Source text: as §1
Background: In an ELISA, binding on a coated surface is turned into a signal by an enzyme label.

The test system of data set [5] is Human mesenchymal stem cells. Description: Suspension culture of human mesenchymal stem cells under anoxic anaerobic condition and cell counting. The settings on record: for number of dead cells / number of viable cells / total number of cells / viability: anaerobic condition, 20 μM Y27632. It counts as cell-based. The method, then:
Human mesenchymal stem cells were cultured in 10% FBS-containing α-MEM medium such that no contact inhibition occurred. […] Then, the cells were treated with 0.25% trypsin/EDTA and allowed to stand in a CO2 incubator at 37° C. for 30 seconds. The cells that dropped into the tube were collected, and the cells remaining in the dish were completely collected with 10% FBS-containing α-MEM, and the collected cells were centrifuged at 2000 rpm for 5 minutes. The supernatant medium was removed by suction, and the precipitated cells were suspended in 5 ml of EB medium (80% DMEM/F12 80%+20% serum replacement) and then centrifuged at 1500 rpm for 5 minutes. Then, the cells were suspended in 10 ml of medium (containing or not containing 20 μM Y27632) in a 100 0 Petri dish at a density of 2.0×10^6 cells. Then, the cells were placed in an anoxic pack (BD Science) to induce an anoxic anaerobic condition. […]

Setting [6] is: 20 μM Y27632, suspension culture 24 hours, trypan blue.

`O=C(O)CN(CCN(CC(=O)O)CC(=O)O)CC(=O)O` [EDTA]: in data set [1], the cell aggregation result is on record as “no cell aggregation occurred” and the “apoptosis of non-aggregated single cells” value is given as “apoptosis occurred in all the cells”.
For the compound `C[C@@H](N)[C@H]1CC[C@H](C(=O)Nc2ccncc2)CC1.Cl.Cl` (relative stereo) [Y27632, trans-4-[(1R)-1-Aminoethyl]-N-4-pyridinyl-cyclohexanecarboxamide, 2HCl], the “total number of cells” value in data set [1] (20 μM Y27632, suspension culture 24 hours) is reported as 1.8×10^6. Also, in data set [1] (setting [6]), the “number of dead cells” value is reported as 0.54×10^6, the “number of viable cells” value was 1.26×10^6 and the viability came to 70%. Also, in data set [1], the cell aggregation entry is given as “further increased” and the “apoptosis of non-aggregated single cells” value is “prevented”. For the same compound, the “HGF efficiency (expression level of HGF)” value in data set [2] is on record as “increased”. Also, the “expression of the anti-apoptosis factor BCL-XL” value with BCL-XL is recorded as “significantly increased”. In addition, the “phosphorylation of ERK” value in data set [3] was “significantly increased”. For the same compound, the “expression level of HGF” value in data set [4] is reported as “significantly higher”. Moreover, in data set [5] (6 hours of culture), the “number of dead cells” value was 2.4×10^5, the “number of viable cells” value is listed as 1.2×10^6, the “total number of cells” value was 1.6×10^6 and the viability came out at 84%. Moreover, in data set [5] (24 hours of culture), the “number of dead cells” value is listed as 1.6×10^5, the “number of viable cells” value was 1.24×10^6, the “total number of cells” value is 1.4×10^6 and the viability was found to be 90%. The “apoptosis of single cells” value in data set [5] (anoxic anaerobic condition, FIG. 7) was “did not undergo apoptosis”.
